Test results published in US12084419B2, “Cell metabolism modulating compounds and uses thereof” (CRESCENTA BIOSCIENCES, priority 2020, dated 2024).

Target: T1, His6 tagged human recombinant FABP4 (Homo sapiens, UniProt P15090)
T1 construct: purchased Cayman Chemicals 10009549
Assay: FABP4 TR-FRET assay: displacement of BODIPY FL C12 fatty acid
Conditions: triplicates, inhibition of BODIPY FL C12 binding
Text: Activity of compounds with FABP4 was profiled using a Terbium (Tb) based time resolved fluorescence energy transfer (TR-FRET) assay. The assay measures the compound mediated displacement of the fluorescent fatty acid BODIPY FL C12 (Thermo Fisher; catalog number D3822) from His6 tagged human recombinant FABP4 (His6-FABP4; Cayman Chemicals, catalog number 10009549) via recording the energy transfer from TB donor molecule on anti-His6-tag antibody to acceptor BODIPY moiety. Briefly, compounds were prepared at a concentration of 0.362 mM and 0.0362 mM, and BODIPY FL C12 was prepared at 4.2 μM, in DMSO. 1.2 μL of each compound or DMSO (vehicle control) and 1.2 μL of BODIPY FL C12 were added into the wells of a 384-well black polypropylene plate. His6-FABP4 and Tb anti-His6 antibody were prepared in the assay buffer (25 mM Tris/HCl, pH 7.4, 0.4 mg/ml y-globulins, 0.010% NP-40, 1 mM DTT) at a concentration of 83 nM and 49.6 nM, respectively. The protein and antibody solutions were then mixed at a ratio of 34:7 (v/v) and incubated on ice for 30 minutes. The assay was initiated by adding 41 μL of the resulting protein/antibody solution into the wells containing the compounds and BODIPY FL C12. The plate was centrifuged and incubated at room temperature for 10 min. The TR-FRET signals were recorded using an EnVision Multilabel plate reader (PerkinElmer; TB excitation 320 nm, BODIPY FL C12 emission 520 nm; TB emission 615 nm). Relative fluorescence ratio (520 nm*10,000/615 nm) were used to calculate the compound mediated inhibition of BODIPY C12 FL fatty acid binding to FABP4. […] Glucose consumption and FABP4 inhibition is shown below in Table 3 below.

T1 sequence (P15090 whole entry): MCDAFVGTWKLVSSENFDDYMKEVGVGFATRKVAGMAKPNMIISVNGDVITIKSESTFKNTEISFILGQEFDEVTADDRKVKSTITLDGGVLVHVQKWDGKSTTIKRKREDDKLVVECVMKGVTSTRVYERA

| SMILES | inhibition at 1 µM (1 μM compound) | inhibition at 10 µM (10 μM compound) | FABP4 inhibition (%) at 1 μM Mean (1 μM compound) | FABP4 inhibition (%) at 10 μM Mean (10 μM compound) |
| --- | --- | --- | --- | --- |
| NC(=O)c1cccc(Cn2c3c(c4cccc(C(=O)O)c42)CCCC(CCc2ccccc2)C3)c1 (centres unmarked) [5-[(3-carbamoylphenyl)methyl]-7-(2-phenylethyl)-5H,6H,7H,8H,9H,10H-cyclohepta[b]indole-4-carboxylic acid] | 99.1% | 98% | – | – |
| CCC1CCCc2c(n(Cc3cccc(C(N)=O)c3)c3c(C(=O)O)cccc23)C1 (centres unmarked) [5-[(3-carbamoylphenyl)methyl]-7-ethyl-5H,6H,7H,8H,9H,10H-cyclohepta[b]indole-4-carboxylic acid] | 91.8% | 100% | – | – |
| CCCCCCC1CCCc2c(n(Cc3cccc(C(N)=O)c3)c3c(C(=O)O)cccc23)C1 (centres unmarked) [5-[(3-carbamoylphenyl)methyl]-7-hexyl-5H,6H,7H,8H,9H,10H-cyclohepta[b]indole-4-carboxylic acid] | 102% | 94.2% | – | – |
| CCCCCCCCC1CCCc2c(n(Cc3cccc(C(N)=O)c3)c3c(C(=O)O)cccc23)C1 (centres unmarked) [5-[(3-carbamoylphenyl)methyl]-7-octyl-5H,6H,7H,8H,9H,10H-cyclohepta[b]indole-4-carboxylic acid] | 98.1% | 93.6% | – | – |
| CCCCCC1CCCc2c(n(Cc3cccc(C(N)=O)c3)c3c(C(=O)O)cccc23)C1 (centres unmarked) [5-[(3-carbamoylphenyl)methyl]-7-pentyl-5H,6H,7H,8H,9H,10H-cyclohepta[b]indole-4-carboxylic acid] | 91.2% | 93.3% | – | – |
| CCCC1CCCc2c(n(Cc3cccc(C(N)=O)c3)c3c(C(=O)O)cccc23)C1 (centres unmarked) [5-[(3-carbamoylphenyl)methyl]-7-propyl-5H,6H,7H,8H,9H,10H-cyclohepta[b]indole-4-carboxylic acid] | 85.1% | 91.4% | – | – |
| CCC1CCCCc2c1c1cccc(C(=O)O)c1n2Cc1cccc(C(N)=O)c1 (centres unmarked) [5-[(3-carbamoylphenyl)methyl]-10-ethyl-5H,6H,7H,8H,9H,10H-cyclohepta[b]indole-4-carboxylic acid] | 86.4% | 98% | – | – |
| CCCCCC1CCCCc2c1c1cccc(C(=O)O)c1n2Cc1cccc(C(N)=O)c1 (centres unmarked) [5-[(3-carbamoylphenyl)methyl]-10-pentyl-5H,6H,7H,8H,9H,10H-cyclohepta[b]indole-4-carboxylic acid] | 81.1% | 96.1% | – | – |
| CCCC1CCCCc2c1c1cccc(C(=O)O)c1n2Cc1cccc(C(N)=O)c1 (centres unmarked) [5-[(3-carbamoylphenyl)methyl]-10-propyl-5H,6H,7H,8H,9H,10H-cyclohepta[b]indole-4-carboxylic acid] | 38.8% | 91.6% | – | – |
| CCCCCCC1CCCc2c(n(Cc3cccc(C(=O)O)c3)c3c(C(=O)O)cccc23)C1 (centres unmarked) [5-[(3-carboxyphenyl)methyl]-7-hexyl-5H,6H,7H,8H,9H,10H-cyclohepta[b]indole-4-carboxylic acid] | 89.8% | 89.2% | – | – |
| CCCCCCC1CCCc2c(n(Cc3cccc(Cl)c3)c3c(C(=O)O)cccc23)C1 (centres unmarked) [5-[(3-chlorophenyl)methyl]-7-hexyl-5H,6H,7H,8H,9H,10H-cyclohepta[b]indole-4-carboxylic acid] | 103% | 45.9% | – | – |
| CCCCCCC1CCCc2c(n(Cc3cccc(C#N)c3F)c3c(C(=O)O)cccc23)C1 (centres unmarked) [5-[(3-cyano-2-fluorophenyl)methyl]-7-hexyl-5H,6H,7H,8H,9H,10H-cyclohepta[b]indole-4-carboxylic acid] | 87.9% | 95.5% | – | – |
| CCCCCCC1CCCc2c(n(Cc3cccc(C#N)c3)c3c(C(=O)O)cc(F)cc23)C1 (centres unmarked) [5-[(3-cyanophenyl)methyl]-2-fluoro-7-hexyl-5H,6H,7H,8H,9H,10H-cyclohepta[b]indole-4-carboxylic acid] | 87.3% | 93.9% | – | – |
| N#Cc1cccc(Cn2c3c(c4cccc(C(=O)O)c42)CCCC(CCc2ccccc2)C3)c1 (centres unmarked) [5-[(3-cyanophenyl)methyl]-7-(2-phenylethyl)-5H,6H,7H,8H,9H,10H-cyclohepta[b]indole-4-carboxylic acid] | 93.1% | 94.5% | – | – |
| CCC1CCCc2c(n(Cc3cccc(C#N)c3)c3c(C(=O)O)cccc23)C1 (centres unmarked) [5-[(3-cyanophenyl)methyl]-7-ethyl-5H,6H,7H,8H,9H,10H-cyclohepta[b]indole-4-carboxylic acid] | 90% | 97% | – | – |
| CCCCCCC1CCCc2c(n(Cc3cccc(C#N)c3)c3c(C(=O)O)cccc23)C1 (centres unmarked) [5-[(3-cyanophenyl)methyl]-7-hexyl-5H,6H,7H,8H,9H,10H-cyclohepta[b]indole-4-carboxylic acid] | 94.1% | 88.7% | – | – |
| CCCCCCCCC1CCCc2c(n(Cc3cccc(C#N)c3)c3c(C(=O)O)cccc23)C1 (centres unmarked) [5-[(3-cyanophenyl)methyl]-7-octyl-5H,6H,7H,8H,9H,10H-cyclohepta[b]indole-4-carboxylic acid] | 94.5% | 93% | – | – |
| CCCCCC1CCCc2c(n(Cc3cccc(C#N)c3)c3c(C(=O)O)cccc23)C1 (centres unmarked) [5-[(3-cyanophenyl)methyl]-7-pentyl-5H,6H,7H,8H,9H,10H-cyclohepta[b]indole-4-carboxylic acid] | 100% | 96.1% | – | – |
| CCC1CCCCc2c1c1cccc(C(=O)O)c1n2Cc1cccc(C#N)c1 (centres unmarked) [5-[(3-cyanophenyl)methyl]-10-ethyl-5H,6H,7H,8H,9H,10H-cyclohepta[b]indole-4-carboxylic acid] | 92.4% | 98.2% | – | – |
| CCCCCC1CCCCc2c1c1cccc(C(=O)O)c1n2Cc1cccc(C#N)c1 (centres unmarked) [5-[(3-cyanophenyl)methyl]-10-pentyl-5H,6H,7H,8H,9H,10H-cyclohepta[b]indole-4-carboxylic acid] | 44.3% | 77% | – | – |
| CCCC1CCCCc2c1c1cccc(C(=O)O)c1n2Cc1cccc(C#N)c1 (centres unmarked) [5-[(3-cyanophenyl)methyl]-10-propyl-5H,6H,7H,8H,9H,10H-cyclohepta[b]indole-4-carboxylic acid] | 73.3% | 97.5% | – | – |
| CCCCCCC1CCCc2c(n(Cc3cccc(F)c3)c3c(C(=O)O)cccc23)C1 (centres unmarked) [5-[(3-fluorophenyl)methyl]-7-hexyl-5H,6H,7H,8H,9H,10H-cyclohepta[b]indole-4-carboxylic acid] | 93.6% | 92.9% | – | – |
| CCCCCCC1CCCc2c(n(Cc3ccc(C(N)=O)cc3)c3c(C(=O)O)cccc23)C1 (centres unmarked) [5-[(4-carbamoylphenyl)methyl]-7-hexyl-5H,6H,7H,8H,9H,10H-cyclohepta[b]indole-4-carboxylic acid] | 77.7% | 83.8% | – | – |
| CCCCCCC1CCCc2c(n(Cc3ccc(C#N)cc3)c3c(C(=O)O)cccc23)C1 (centres unmarked) [5-[(4-cyanophenyl)methyl]-7-hexyl-5H,6H,7H,8H,9H,10H-cyclohepta[b]indole-4-carboxylic acid] | 81.3% | 84.7% | – | – |
| CCCCCCC1CCCc2c(n(Cc3ccc(F)cc3)c3c(C(=O)O)cccc23)C1 (centres unmarked) [5-[(4-fluorophenyl)methyl]-7-hexyl-5H,6H,7H,8H,9H,10H-cyclohepta[b]indole-4-carboxylic acid] | 74.4% | 77.6% | – | – |
| CCCCCCC1CCCc2c(n(Cc3ccc(C#N)o3)c3c(C(=O)O)cccc23)C1 (centres unmarked) [5-[(5-cyanofuran-2-yl)methyl]-7-hexyl-5H,6H,7H,8H,9H,10H-cyclohepta[b]indole-4-carboxylic acid] | 81.3% | 90% | – | – |
| CCCCCCC1CCCc2c(n(Cc3cncc(C#N)c3)c3c(C(=O)O)cccc23)C1 (centres unmarked) [5-[(5-cyanopyridin-3-yl)methyl]-7-hexyl-5H,6H,7H,8H,9H,10H-cyclohepta[b]indole-4-carboxylic acid] | 90.5% | 91.8% | – | – |
| CCCCCCC1CCCc2c(n(Cc3ccc(C#N)s3)c3c(C(=O)O)cccc23)C1 (centres unmarked) [5-[(5-cyanothiophen-2-yl)methyl]-7-hexyl-5H,6H,7H,8H,9H,10H-cyclohepta[b]indole-4-carboxylic acid] | 86.6% | 87.3% | 83.31% | 89.42% |
| CCCCCCC1CCCc2c(n(Cc3cccc(C(N)=O)n3)c3c(C(=O)O)cccc23)C1 (centres unmarked) [5-[(6-carbamoylpyridin-2-yl)methyl]-7-hexyl-5H,6H,7H,8H,9H,10H-cyclohepta[b]indole-4-carboxylic acid] | 94% | 95.2% | – | – |
| CCCCCCC1CCCc2c(n(Cc3cccc(C#N)n3)c3c(C(=O)O)cccc23)C1 (centres unmarked) [5-[(6-cyanopyridin-2-yl)methyl]-7-hexyl-5H,6H,7H,8H,9H,10H-cyclohepta[b]indole-4-carboxylic acid] | 93.5% | 88.1% | – | – |
